Results from publication PMC6382696, “Drug Repurposing: The Anthelmintics Niclosamide and Nitazoxanide Are Potent TMEM16A Antagonists That Fully Bronchodilate Airways” (Frontiers in Pharmacology, 2019).
Where two headings read alike, the source gives them in different places.

Tests used:
[1] = molecular target: T1, human CFTR (Homo sapiens, UniProt P13569); experiment: IonWorks Barracuda electrophysiology, CFTR chloride current in CHO cells; assay type: cell-based; conditions: for effect on CFTR chloride current: 10 µM compound, CHO CFTR
T1 construct: host or cells: CHO
Source text: HEK293 cells stably expressing the human TMEM16A (abc) variant and CHO cells expressing the human CFTR gene were from ChanTest. The IonWorks Barracuda (IWB) procedure and data provided are from outsourced studies performed at ChanTest (Charles River Discovery, Cleveland, OH, United States) who were blinded as to the identity of the test articles or compounds provided by Amgen.
For measuring compound effects on CFTR chloride currents, compounds were serially diluted in HEPES-buffered physiological saline to 2X final concentration allowing for an 8-point dose-response analysis. Test article concentrations were applied to naïve cells (n = 4, where n = the number of replicate wells/concentration) via steel needles, where each application will consist of addition of 20 μl of 2X concentrated test article solution to a final 40 μl volume in the extracellular well of the Population Patch ClampTM (PPC) planar electrode. After mixing (three times), duration of exposure to compound is at least 5 min. Final solutions contain 0.3% DMSO. […] The current is measured using a pulse pattern consisting of a voltage step to +60 mV, 100 ms duration; voltage ramp from +60 to −120 mV, 1000 ms; step to −120 mV, 200 ms; and step to 0 mV, 200 ms; from holding potential, −30 mV. Current amplitudes were measured at the voltage step to 0 mV. The recording procedure was as follows: extracellular buffer is loaded into the PPC plate wells (11 μl per well). Cell suspension was pipetted into the wells (9 μl per well) of the PPC planar electrode. After establishment of a whole-cell configuration via amphotericin patch perforation similar to that described earlier, membrane currents were recorded using the patch clamp amplifier in the IonWorks^TM Barracuda system. Two recordings (scans) were then performed, one scan before and a second scan 5 min after test article (TA) application. […] Data acquisition and analyses were performed using the IonWorks Barracuda^TM system operation software (version 2.0.2). The decrease in current amplitude after test article application was used to calculate the percent block relative to control. […] Inhibition effect was calculated as: % Inhibition = (1 – ITA/IBaseline) × 100%, where IBaseline and ITA were the currents measured in control (before addition of a test article) and in the presence of a test article, respectively.

[2] = system: human bronchial rings; experiment: Wire myograph bronchodilation of carbachol pre-contracted human bronchial rings (Amgen)
Description: Bronchodilator studies using human bronchial rings (Figure 5E–G and Supplementary Figure 38) used the same instruments and reagents described earlier for studies on mouse tracheal rings.
Non-transplantable human lungs were obtained through the International Institute for the Advancement of Medicine, IIAM (Edison, NJ, United States) from non-smoking donors who had been ventilated for <3 days with acceptable blood gasses and used within 24 h of cross-clamp time.
Human 4th order bronchial rings were isolated, sliced into 2 mm long rings and then mounted individually in chambers of wire myographs containing 6 ml room temperature PSS per chamber. […] Bronchial rings are allowed to equilibrate in PSS while chambers are warmed to 37°C. […] The rings were then equilibrated for additional 40–60 min, changing buffer every 15–20 min. Tension was adjusted if it dropped below 9.8 mN. Airway rings were “woken up” by exposing to pre-warmed, aerated KPSS and allowing rings to reach plateau of constriction, followed by washing rings four times with PSS. This procedure was repeated two additional times.
Airway contraction response was then assessed by treating with increasing doses of the contractant, carbachol (10 nM to 10 μM), waiting for response plateaus (at least 5 min between additions).
At the end of each CCRC, rings were fully relaxed by addition of 2.2 mM theophylline. One hundred percent contraction was calculated by subtracting the stable tension remaining in the airway ring after theophylline addition from the tension achieved after addition of EC75 carbachol while 100% relaxation is the net tension remaining after theophylline addition. Dose response curves and EC50 values for bronchodilation were determined in GraphPad Prism.

[3] = 20 μM forskolin, IonWorks Barracuda, read-out: CFTR Chloride Current (IC50)
[4] = Homo sapiens, EC75 carbachol, 4th order bronchi, 5 μM indomethacin, read-out: EC50 relaxing carbachol precontracted human bronchial rings
[5] = Homo sapiens, supplement, 5 M indomethacin (so in the source), read-out: EC50 relaxation of carbachol pre-contracted human bronchial rings

T1 sequence (P13569 whole entry): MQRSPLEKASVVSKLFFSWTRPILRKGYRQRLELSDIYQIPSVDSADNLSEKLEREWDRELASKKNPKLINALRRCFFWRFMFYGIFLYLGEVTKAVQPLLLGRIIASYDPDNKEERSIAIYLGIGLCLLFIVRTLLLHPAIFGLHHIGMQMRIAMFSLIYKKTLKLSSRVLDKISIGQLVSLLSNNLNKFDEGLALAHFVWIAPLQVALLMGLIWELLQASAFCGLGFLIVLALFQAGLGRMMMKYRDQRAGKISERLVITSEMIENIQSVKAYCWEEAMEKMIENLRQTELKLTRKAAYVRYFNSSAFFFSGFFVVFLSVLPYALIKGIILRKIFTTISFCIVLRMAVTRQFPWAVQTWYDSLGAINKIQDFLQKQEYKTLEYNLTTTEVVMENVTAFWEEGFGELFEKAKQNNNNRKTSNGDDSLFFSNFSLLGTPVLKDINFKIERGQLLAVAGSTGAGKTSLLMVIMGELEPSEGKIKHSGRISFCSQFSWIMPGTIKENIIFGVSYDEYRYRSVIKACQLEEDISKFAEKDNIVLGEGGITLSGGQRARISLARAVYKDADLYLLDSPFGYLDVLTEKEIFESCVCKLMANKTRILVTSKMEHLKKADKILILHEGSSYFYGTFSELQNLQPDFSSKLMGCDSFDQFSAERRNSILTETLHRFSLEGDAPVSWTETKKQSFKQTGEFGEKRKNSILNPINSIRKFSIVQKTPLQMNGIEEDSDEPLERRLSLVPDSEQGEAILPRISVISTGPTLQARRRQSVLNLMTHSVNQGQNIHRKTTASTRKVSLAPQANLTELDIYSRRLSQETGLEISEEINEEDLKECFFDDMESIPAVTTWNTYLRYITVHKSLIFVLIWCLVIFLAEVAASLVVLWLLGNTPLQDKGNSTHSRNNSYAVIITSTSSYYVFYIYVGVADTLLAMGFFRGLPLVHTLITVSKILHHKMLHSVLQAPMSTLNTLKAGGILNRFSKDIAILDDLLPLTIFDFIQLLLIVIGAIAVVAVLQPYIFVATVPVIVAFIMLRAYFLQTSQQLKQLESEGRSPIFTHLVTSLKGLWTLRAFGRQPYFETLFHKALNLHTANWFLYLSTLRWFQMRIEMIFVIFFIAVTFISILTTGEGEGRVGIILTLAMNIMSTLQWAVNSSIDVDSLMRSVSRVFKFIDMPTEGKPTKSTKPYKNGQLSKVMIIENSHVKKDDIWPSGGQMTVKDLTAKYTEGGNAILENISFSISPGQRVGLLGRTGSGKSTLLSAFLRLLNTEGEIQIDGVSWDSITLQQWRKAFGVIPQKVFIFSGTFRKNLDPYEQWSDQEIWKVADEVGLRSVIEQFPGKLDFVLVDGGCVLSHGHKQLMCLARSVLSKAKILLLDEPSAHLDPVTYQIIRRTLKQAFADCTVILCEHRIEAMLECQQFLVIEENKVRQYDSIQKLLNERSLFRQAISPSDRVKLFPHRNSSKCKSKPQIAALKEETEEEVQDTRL

Row | Structure (SMILES) | IC50 [1, 3] [µM] | effect on cAMP-induced CFTR chloride current ([1]; IonWorks Barracuda) | EC50 [2, 4] [µM] | EC50 [2, 5] [µM] | IC50 [1] [µM] | percent of inhibition (POI) of the forskolin-induced CFTR current [1] [%] | effect on CFTR chloride current [1] | EC50 ([2]; EC75 carbachol, 4th order bronchi, 5 μM indomethacin, read-out: EC50 relaxing carbachol precontracted human bronchial rings) [µM]
1 | N#Cc1c(C(F)(F)F)cc(O)n2c1nc1ccccc12 [1PBC] | > 30 | inactive | 0.91 ± 0.2 | 0.761 |  |  |  | 
2 | CCc1oc2ccccc2c1C(=O)c1cc(Br)c(O)c(Br)c1 [Benzbromarone] |  | reduced | 2.08 ± 1.95 | 3.45 | 5.2 |  |  | 
3 | CC(C)(C)C1CCc2c(sc(NC(=O)c3ccco3)c2C(=O)O)C1 (stereo not shown) [CaCCinh-A01] | 10.1 | reduced | 9.24 |  |  |  |  | 
4 | O=C(Nc1ccc([N+](=O)[O-])cc1)c1cc(Cl)ccc1O [Cpd 2] |  | inactive |  |  |  | < 20 |  | 
5 | COc1cc([N+](=O)[O-])ccc1NC(=O)c1cc(Cl)c2ccccc2c1O [Cpd 4] | > 30 | inactive | 1.61 |  |  | < 20 | no significant effects | 
6 | Oc1ccc(Cl)cc1Cc1cc(Cl)ccc1O [Dichlorophen] |  |  | 19.1 |  |  |  |  | 10.6 ± 12
7 | COc1cc(Nc2ccc([N+](=O)[O-])cc2C(=O)O)cc2ccccc12 [MONNA] | 19 | reduced |  |  |  |  |  | 
8 | O=C(Nc1ccc([N+](=O)[O-])cc1Cl)c1cc(Cl)ccc1O [Niclosamide] | > 30 | inactive | 0.73 |  |  | < 20 | no significant effects | 
9 | O=C(O)c1cccnc1Nc1cccc(C(F)(F)F)c1 [Niflumic Acid] | > 30 |  | 14.4 ± 0.76 | 14.9 |  |  |  | 
10 | CCc1c(C)nc(SCC(=O)Nc2nc(-c3ccc(OC)cc3)cs2)[nH]c1=O [T16Ainh-A01] | > 30 |  |  |  |  |  |  | 
